Experimental data taken from patent US20230135635A1, “INHIBITORS OF ULK1/2 AND METHODS OF USING SAME” (SALK INSTITUTE FOR BIOLOGICAL STUDIES, priority 2020, published 2023).

Biological target: T1, recombinant human ULK1 protein (1-649) (Homo sapiens, UniProt O75385)
T1 construct: recombinant human ULK1 protein (1-649, SignalChem #U01-11G); purchased SignalChem U01-11G
T1 sequence (O75385 1-649): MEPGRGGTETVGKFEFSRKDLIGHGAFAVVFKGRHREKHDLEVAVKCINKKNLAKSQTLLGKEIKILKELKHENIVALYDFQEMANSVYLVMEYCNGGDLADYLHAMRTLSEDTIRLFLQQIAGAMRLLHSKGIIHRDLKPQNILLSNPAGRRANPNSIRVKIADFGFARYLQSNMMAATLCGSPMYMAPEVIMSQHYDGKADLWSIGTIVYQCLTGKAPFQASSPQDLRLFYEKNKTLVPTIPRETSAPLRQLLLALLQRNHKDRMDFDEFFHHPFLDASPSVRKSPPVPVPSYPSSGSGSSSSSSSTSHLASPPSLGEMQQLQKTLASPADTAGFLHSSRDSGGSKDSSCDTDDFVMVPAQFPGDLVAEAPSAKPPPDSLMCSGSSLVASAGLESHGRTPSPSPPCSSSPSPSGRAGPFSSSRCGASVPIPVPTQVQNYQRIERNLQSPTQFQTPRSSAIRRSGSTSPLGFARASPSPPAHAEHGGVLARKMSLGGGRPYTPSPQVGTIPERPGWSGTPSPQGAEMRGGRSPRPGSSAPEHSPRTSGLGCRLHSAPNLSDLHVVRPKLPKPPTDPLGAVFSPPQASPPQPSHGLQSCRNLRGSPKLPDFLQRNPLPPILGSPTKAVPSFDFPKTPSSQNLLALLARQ
Assay: ULK1 inhibition assay (ADP Glo)
Assay type: biochemical
Outline: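 Recombinant ULK1 (2 ug/mL) phosphorylated myelin basic protein (80 ug/mL) at 25 uM ATP; ADP formed was detected by ADP-Glo after 1 h. Compounds ran in triplicate, 16-dose 3-fold serial dilution from 30 uM, to give IC50.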

[1] = Table 1, 25 uM ATP, MBP substrate, one hour

| IC50 [1] | SMILES | other results |
| --- | --- | --- |
| > 0.01 µM | CNC(=O)c1ccccc1Nc1nc(Nc2ccc3c(c2)CN(C(=O)CN)CC3)ncc1Br [Compound A152, 2-{2-[2-(2-Amino-acetyl)-1,2,3,4-tetrahydro-isoquinolin-7-ylamino]-5-bromo-pyrimidin-4-ylamino}-N-methyl-benzamide] |  |
| > 0.01 µM | CNC(=O)c1ccccc1Nc1nc(Nc2ccc3c(c2)CCN(C)C3)ncc1Br [Compound A135, 2-[5-Bromo-2-(2-methyl-1,2,3,4-tetrahydro-isoquinolin-6-ylamino)-pyrimidin-4-ylamino]-N-methyl-benzamide] |  |
| < 0.001 µM | CSCCN1CCc2cc(Nc3ncc(C(F)(F)F)c(NC4CC4)n3)ccc2C1 [Compound A11] |  |
|  | CN(C)C1Cc2ccc(Nc3ncc(C(F)(F)F)c(NC4CC4)n3)cc2C1 (stereo not drawn) [Compound D6] | IC50 (Table 3): < 0.005 µM |
|  | NCCCNc1ncc(Br)c(Nc2ccccc2CO)n1 [Compound C15] | IC50 (Table 3): > 0.1 µM |
| < 0.001 µM | NS(=O)(=O)N1CCc2cc(Nc3ncc(C(F)(F)F)c(NC4CC4)n3)ccc2C1 [Compound A25] |  |
| 0.001 to 0.01 µM | CN1CCN(C(=O)N2CCc3ccc(Nc4ncc(C(F)(F)F)c(NC5CC5)n4)cc3C2)CC1 [Compound A99] |  |
| > 0.01 µM | CNC(=O)c1ccccc1Nc1nc(Nc2ccc3c(c2)CN(Cc2cccnc2)CC3)ncc1Br [Compound A159, 2-[5-Bromo-2-(2-pyridin-3-ylmethyl-1,2,3,4-tetrahydro-isoquinolin-7-ylamino)-pyrimidin-4-ylamino]-N-methyl-benzamide] |  |
| < 0.001 µM | CC(=O)CN1CCc2cc(Nc3ncc(C(F)(F)F)c(NC4CC4)n3)ccc2C1 [Compound A69] |  |
|  | COC(=O)c1ccccc1Oc1nc(Nc2ccc3[nH]ncc3c2)ncc1Br [Compound B26] | IC50 (Table 2): 0.1 to 1 µM |
|  | COC(=O)c1ccccc1Oc1nc(Nc2ccc3[nH]ccc3c2)ncc1Br [Compound B31] | IC50 (Table 2): > 1 µM |
| > 0.01 µM | CNC(=O)c1ccccc1Nc1nc(Nc2ccc3c(c2)CCN(Cc2ccncn2)C3)ncc1Br [Compound A146, 2-[5-Bromo-2-(2-pyrimidin-4-ylmethyl-1,2,3,4-tetrahydro-isoquinolin-6-ylamino)-pyrimidin-4-ylamino]-N-methyl-benzamide] |  |
| > 0.01 µM | O=C(O)c1cnc(Nc2ccc3c(c2)CCNC3)nc1NC1CC1 [Compound A85] |  |
|  | CNC(=O)c1ccc(Nc2nc(Nc3cc(OC)c(OC)c(OC)c3)ncc2Br)cc1 [Compound E27, 4-((5-Bromo-2-((3,4,5-trimethoxyphenyl)amino)pyrimidin-4-yl)amino)-N-methylbenzamide] | IC50 (Table 3): > 0.1 µM |
|  | COc1cc(Nc2ncc(Br)c(Nc3ccc(NC(=O)C4(C(=O)Nc5ccc(F)cc5)CC4)cc3F)n2)cc(OC)c1OC [Compound E28, N-(4-((5-Bromo-2-((3,4,5-trimethoxyphenyl)amino)pyrimidin-4-yl)amino)-3-fluorophenyl)-N-(4-fluorophenyl)cyclopropane-1,1-dicarboxamide] | IC50 (Table 3): > 0.1 µM |
|  | O=C(NCc1ccc(Nc2ncc(C(F)(F)F)c(NC3CC3)n2)cc1)OCc1ccccc1 [Compound D2] | IC50 (Table 3): < 0.005 µM |
|  | COC(=O)c1ccccc1Oc1nc(Nc2ccc(OC(F)(F)F)cc2)ncc1Br [Compound B13] | IC50 (Table 2): > 1 µM |
| < 0.001 µM | FC(F)(F)c1cnc(Nc2ccc3c(c2)CCN(CCN2CCOCC2)C3)nc1NC1CC1 [Compound A5] |  |
| > 0.01 µM | CNC(=O)c1ccccc1Nc1nc(Nc2ccc3c(c2)CCN(Cc2ccccn2)C3)ncc1Br [Compound A144, 2-[5-Bromo-2-(2-pyridin-2-ylmethyl-1,2,3,4-tetrahydro-isoquinolin-6-ylamino)-pyrimidin-4-ylamino]-N-methyl-benzamide] |  |
|  | COc1cc(Nc2ncc(Br)c(Oc3ccccc3C(=O)N3CCOCC3)n2)cc(OC)c1OC [Compound B9] | IC50 (Table 2): > 1 µM |
|  | COc1cccc(Nc2ncc(Br)c(Nc3ccccc3CO)n2)c1 [Compound C6] | IC50 (Table 3): < 0.005 µM |
| < 0.001 µM | CN1CCN(C(=O)N2CCc3cc(Nc4ncc(C(F)(F)F)c(NC5CC5)n4)ccc3C2)CC1 [Compound A37] |  |
|  | O=c1[nH]c2ccc(Nc3ncc(C(F)(F)F)c(NC4CC4)n3)cc2[nH]1 [Compound D1] | IC50 (Table 3): 0.005 to 0.1 µM |
| < 0.001 µM | CN(C)C(=O)CN1CCc2cc(Nc3ncc(C(F)(F)F)c(NC4CC4)n3)ccc2C1 [Compound A74] |  |

| IC50 [1] | SMILES | other results |
| --- | --- | --- |
|  | COC(=O)c1ccccc1Oc1nc(Nc2ccc(OC)nc2)ncc1Br [Compound B39] | IC50 (Table 2): > 1 µM |
| < 0.001 µM | FC(F)(F)c1cnc(Nc2ccc3c(c2)CN(Cc2ccncn2)CC3)nc1NC1CC1 [Compound A109] |  |
|  | COC(=O)c1ccccc1Oc1nc(Nc2ccc(OC)c(OC)c2)ncc1Br [Compound B17] | IC50 (Table 2): > 1 µM |
|  | COc1cc(Nc2ncc(Br)c(Nc3ccccc3COC(=O)N3CCOCC3)n2)cc(OC)c1OC [Compound C21] | IC50 (Table 3): > 0.1 µM |
| 0.001 to 0.01 µM | NS(=O)(=O)N1CCc2ccc(Nc3ncc(C(F)(F)F)c(NC4CC4)n3)cc2C1 [Compound A76] |  |
| < 0.001 µM | FC(F)(F)c1cnc(Nc2ccc3c(c2)CCN(Cc2cncnc2)C3)nc1NC1CC1 [Compound A49] |  |
|  | COC(=O)c1ccccc1Oc1nc(Nc2ccc(N3CCN(C)CC3)cc2)ncc1Br [Compound B11] | IC50 (Table 2): < 0.1 µM |
|  | COc1cc(Nc2ncc(Br)c(Nc3ccccc3COCC(=O)N(C)C)n2)cc(OC)c1OC [Compound C19] | IC50 (Table 3): > 0.1 µM |
| > 0.01 µM | CNC(=O)c1ccccc1Nc1nc(Nc2ccc3c(c2)CCNC3)ncc1Br [Compound A126, 2-[5-Bromo-2-(1,2,3,4-tetrahydro-isoquinolin-6-ylamino)-pyrimidin-4-ylamino]-N-methyl-benzamide] |  |
|  | COc1cc(Nc2ncc(Br)c(Oc3ccccc3C(=O)N(C)CCO)n2)cc(OC)c1OC [Compound B3] | IC50 (Table 2): 0.1 to 1 µM |
|  | NCc1ccc(Nc2ncc(C(F)(F)F)c(NC3CC3)n2)cc1 [Compound D3] | IC50 (Table 3): < 0.005 µM |
|  | NC(=O)c1ccc(Nc2ncc(Br)c(Nc3ccccc3CO)n2)cc1 [Compound C14] | IC50 (Table 3): 0.005 to 0.1 µM |
| > 0.01 µM | O=C(NCCO)c1cnc(Nc2ccc3c(c2)CCNC3)nc1NC1CC1 [Compound A36] |  |
| > 0.01 µM | FC(F)(F)c1cnc(Nc2ccc3c(c2)CN(Cc2ccccc2)CC3)nc1NC1CC1 [Compound A95] |  |
| 0.001 to 0.01 µM | CS(=O)(=O)N1CCc2ccc(Nc3ncc(C(F)(F)F)c(NC4CC4)n3)cc2C1 [Compound A104] |  |
|  | COC(=O)c1ccccc1Oc1nc(Nc2ccc(N)cc2)ncc1Br [Compound B37] | IC50 (Table 2): 0.1 to 1 µM |
| > 0.01 µM | CN1CCc2cc(Nc3ncc(N)c(NC4CC4)n3)ccc2C1 [Compound A61] |  |
|  | CNC(=O)c1ccccc1Nc1nc(Nc2cccc(OC(F)F)c2)ncc1Br [Compound E20, 2-((5-Bromo-2-((3-(difluoromethoxy)phenyl)amino)pyrimidin-4-yl)amino)-N-methylbenzamide] | IC50 (Table 3): > 0.1 µM |
| < 0.001 µM | CNCC(=O)N1CCc2cc(Nc3ncc(C(F)(F)F)c(NC4CC4)n3)ccc2C1 [Compound A35] |  |
|  | COC(=O)c1ccccc1Oc1nc(Nc2ccc(OC(F)F)cc2)ncc1Br [Compound B25] | IC50 (Table 2): > 1 µM |
|  | COC(=O)c1ccccc1Oc1nc(Nc2ccc(N3CCOCC3)cc2)ncc1Br [Compound B12] | IC50 (Table 2): > 1 µM |
|  | CNC(=O)c1ccccc1Nc1nc(Nc2ccc(OC)cc2)ncc1Br [Compound E15, 2-((5-Bromo-2-((4-methoxyphenyl)amino)pyrimidin-4-yl)amino)-N-methylbenzamide] | IC50 (Table 3): > 0.1 µM |
| 0.001 to 0.01 µM | COC(=O)CC(=O)N1CCc2ccc(Nc3ncc(C(F)(F)F)c(NC4CC4)n3)cc2C1 [Compound A87] |  |
| > 0.01 µM | O=C(OCCO)c1cnc(Nc2ccc3c(c2)CCNC3)nc1NC1CC1 [Compound A33] |  |
